“And” between values parts separate entries of the source, which are not always exact repeats. Equal values may be shown once. Read-outs that look alike come from different tables or passages of the source. Starred links: 1 amine or outer side, 2 acyl side, 3 side chain; linkers in the order of their positions; H or OH if unused. Positions of bridges follow the written chain, without caps; N, C: chain ends. Non-standard residues stand in square brackets, D forms with d. Residues, ends and D or L forms follow the SMILES beside them. *: point of attachment. hTyr(3S-OH,4S-OH,3'-OSO3H) = N[C@H](C(=O)O)[C@H](O)[C@@H](O)c1ccc(O)c(OS(=O)(=O)O)c1; Orn(4R-OH,5R-OH) = O=C([C@H](C[C@@H](O)[C@@H](O)N[*:3])N[*:1])[*:2]; Pro(3S-OH,4S-Me) = C[C@H]1CN[C@H](C(=O)O)[C@H]1O; X1 = CCCCCOc1ccc(-c2cc(-c3ccc(C(=O)*)cc3)no2)cc1; Gln(3R-OH) = NC(=O)C[C@@H](O)[C@H](N)C(=O)O; Hyp = O=C(O)[C@@H]1C[C@@H](O)CN1
What was measured:
[1] = Storage stability of ready-to-use micafungin sodium solution in vials at 2-8° C. (purity and impurities by RRT); assay type: physicochemical; details: API (drug substance used)
Experimental: As used herein, “relative retention time” (“RRT”) is calculated by dividing the retention time of the peak of interest by the retention time of the main peak. Any peak with an RRT<1 elutes before the main peak, and any peak with an RRT>1 elutes after the main peak. […]

[2] = cited from earlier work

CCCCCOc1ccc(-c2cc(-c3ccc(C(=O)N[C@H]4C[C@@H](O)[C@@H](O)NC(=O)[C@@H]5[C@@H](O)[C@@H](C)CN5C(=O)[C@H]([C@H](O)CC(N)=O)NC(=O)[C@H]([C@H](O)[C@@H](O)c5ccc(O)c(OS(=O)(=O)O)c5)NC(=O)[C@@H]5C[C@@H](O)CN5C(=O)[C@H]([C@@H](C)O)NC4=O)cc3)no2)cc1 [Micafungin sodium, {5-[(1S,2S)-2-[(3S,6S,9S,11R,15S,18S,20R,21R,24S,25S,26S)-3-[(1R)-2-carbamoyl-1-hydroxyethyl]-11,20,21,25-tetrahydroxy-15-[(1R)-1-hydroxyethyl]-26-methyl-2,5,8,14,17,23-hexaoxo-18-[(4-{5-[4-(pentyloxy)phenyl]-1,2-oxazol-3-yl)benzene)amido]-1,4,7,13,16,22-hexaazatricyclo[22.3.0.0.0^9,13]heptacosan-6-yl]-1,2-dihydroxyethyl]-2-hydroxyphenyl} oxidanesulfonic acid] (X1-[Orn(4R-OH,5R-OH)]T[Hyp][hTyr(3S-OH,4S-OH,3'-OSO3H)][Gln(3R-OH)][Pro(3S-OH,4S-Me)]; lactam 1-C)
Imp at RRT 1.02 [1]: 0.24
Imp at RRT 0.93 ([1]; listed as API): 0.64 and 0.58
Imp. E ([1]; listed as API): 0.01 and 0.02
Purity ([1]; listed as API): 99.25 and 98.97
Solubility ([2]; N,N-dimethylformamide): freely soluble
Solubility ([2]; acetone): practically insoluble
Solubility ([2]; acetonitrile): practically insoluble
Solubility ([2]; diethyl ether): practically insoluble
Solubility ([2]; dimethylsulfoxide): freely soluble
Solubility ([2]; ethyl alcohol (95%)): practically insoluble
Solubility ([2]; isotonic sodium chloride solution): freely soluble
Solubility ([2]; methyl alcohol): slightly soluble
Solubility ([2]; n-hexane): practically insoluble
Solubility ([2]; water): freely soluble

Source: patent publication US20220040092A1, “Ready to use injectable formulations of Micafungin Sodium” (RK Pharma Solutions LLC, priority 2020, published 2022)
